For assay [1], the system named is bean aphid (Aphis fabae Scop.). The assay is described as follows: Bean Aphid Foliage Spray Test. It counts as in vivo. Also noted: key: A: excellent control; B: partial control; C: no control. The following applies: 500 ppm foliage spray, 24 hour holding period. The method, then: (§1) Suspensions of the test compounds were prepared by dissolving one gram of compound in 50 milliliters of acetone in which had been dissolved 0.1 gram (10 percent of the weight of compound) of an alkylphenoxy polyethoxyethanol surfactant, as an emulsifying or dispersing agent. The resulting solution was mixed into 150 milliliters of water to give roughly 200 milliliters of a suspension containing the compound in finely divided form. The thus-prepared stock suspension contained 0.5 percent by weight of compound. The test concentrations in parts per million by weight employed in the tests described hereinbelow were obtained by appropriate dilutions of the stock suspension with water. The test procedures were as follows:
Adults and nymphal stages of the bean aphid (Aphis fabae Scop.) reared on potted dwarf nasturtium plants at […] and 50-70 percent relative humidity, constituted the test insects. For testing purposes, the number of aphids per pot was standardized to 100-150 by trimming plants containing excess aphids.
The test compounds were formulated by diluting the stock suspension with water to give a suspension containing 500 parts of test compound per million parts of final formulation.
The potted plants (one pot per compound tested) infested with 100-150 aphids, were placed on a revolving turntable and sprayed with 100-110 milliliters of test compound formulation by use of a DeVilbiss spray gun set at 40 psig. air pressure. This application, which lasted 25 seconds, was sufficient to wet the plants to run-off. As a control, 100-110 milliliters of a water-acetone-emulsifier solution containing no test compound were also sprayed on infested plants. After spraying, the pots were placed on their sides on a sheet of white standard mimeograph paper which had been previously ruled to facilitate counting. Temperature and humidity in the test room during the 24 hour holding period were 65°-70° F. and 50-70 percent, respectively. Aphids which fell onto the paper and were unable to remain standing after being uprighted were considered dead. Aphids remaining on the plants were observed closely for movement and those which were unable to move the length of the body upon stimulation by prodding were considered dead. Percent mortality was recorded for various concentration levels.
(§2) In these tests the pesticidal activity of the compounds against aphid, mite, Southerm Armyworm, Bean Beetle and house fly was rated as follows: […]

Assay [2] relates to two-spotted mite (Tetranychus urticae Koch). The assay is described as follows: Mite Foliage Spray Test. The following applies: 500 ppm foliage spray, six days. On the set-up: key: A: excellent control; B: partial control; C: no control. It counts as in vivo. How it is done: as §1
Adults and nymphal stages of the two-spotted mite (Tetranychus urticae Koch), reared on Tendergreen bean plants at 80±5 percent relative humidity, were the test organisms. Infested leaves from a stock culture were placed on the primary leaves of two bean plants six to eight inches in height, growing in a two-and-a-half inch clay pot. 150-200 Mites, a sufficient number for testing, transferred from the excised leaves to the fresh plants in a period of twenty four hours. Following the twenty four hour transfer period, the excised leaves were removed from the infested plants. The test compounds were formulated by diluting the stock suspension with water to give a suspension containing 500 parts of test compound per million parts of final formulation. The potted plants (one pot per compound) were placed on a revolving turntable and sprayed with 100-110 milliliters of test compound formulation by use of a DeVilbiss spray gun set at 40 psig. air pressure. This application, which lasted 25 seconds, was sufficient to wet the plants to run-off. As a control, 100=110 milliliters of a water solution containing acetone and emulsifier in the same concentrations as the test compound formulation, but containing no test compound, were also sprayed on infested plants. The sprayed plants were held at 80±5 percent relative humidity for six days, after which a mortality count of motile forms was made. Microscopic examination for motile forms was made on the leaves of the test plants. Any individual which was capable of locomotion upon prodding was considered living. […]
as §2

Molecules are shown by their SMILES.

Take `C#CCOc1ccccc1OC(=O)N(C)SSN(C)C(=O)Oc1cccc2c1OC(C)(C)C2`: the “Insecticidal activity rating, Aphid” value in assay [1] is recorded as “A”. The “Miticidal activity rating, Mite” value in assay [2] is given as “C”.
The matching figures for `CN(SSN(C)C(=O)Oc1cccc2ccccc12)C(=O)Oc1cccc2c1OC(C)(C)C2`: “A” and “C”.
On to `CSc1ccc(OC(=O)N(C)SSN(C)C(=O)Oc2cccc3c2OC(C)(C)C3)cc1C`, for which the “Insecticidal activity rating, Aphid” value in assay [1] is listed as “A”. Further, the “Miticidal activity rating, Mite” value in assay [2] is on record as “C”.
For `Cc1cc(C)cc(OC(=O)N(C)SSN(C)C(=O)Oc2cccc3c2OC(C)(C)C3)c1` the same measures were “A” and “C”.
`CN(SSN(C)C(=O)Oc1cccc2c1OC(C)(C)C2)C(=O)Oc1cccc(N(C)C)c1`: the “Insecticidal activity rating, Aphid” value in assay [1] is “A”. Further, in assay [2], the “Miticidal activity rating, Mite” value is given as “C”.
For `CN(SSN(C)C(=O)Oc1cccc2c1OC(C)(C)C2)C(=O)Oc1ccc2c(c1)OCO2` the same measures were “A” and “C”.
For `CN(SSN(C)C(=O)Oc1ccccc1C1SCCS1)C(=O)Oc1ccc(C(C)(C)C)cc1`, the “Insecticidal activity rating, Aphid” value in assay [1] is listed as “A”. Moreover, in assay [2], the “Miticidal activity rating, Mite” value is on record as “C”.

(Values after patent US4166864A, “Pesticidal unsymmetrical bis-arylcarbamate disulfide compounds” (Union Carbide Corporation, priority 1977, dated 1979).)
